Tested on: Ba/F3-INSR xenograft
Assay: Xenograft tumor growth inhibition
Format: in vivo, mice
Text: Six week old female NCr nu/nu mice (for SNU-16) or CB-17 SCID female mice (for NCI-H716 and BaF3 models) were purchased from Taconic Farms (Germantown, NY) and allowed to acclimate for greater than 2 weeks. Mice were housed in sterile micro isolator cages with 5 mice per cage and were received food and water ad libitum. Tumor cells were suspended in 50% Matrigel (lot# A9618-BD, Bioscience) and sterile Hanks Balanced Salt Solution (HBSS) for the NCI-H716 model or in HBSS alone for SNU-16. Each mouse was implanted subcutaneously with 5x10^6 cells (SNU-16) or 8x10^6 cells (NCI-H716) or 2x10^6 cells (BaF3) to the upper right flank area. Tumor measurements and body weights were collected two to three times per week with electronic calipers and balance. Tumor weight (mg) was calculated from the equation: length x (width)^2/2. This formula was used to calculate tumor volume assuming unit density 1 mg = 1 mm^3. Treatment was initiated when tumor burden was between 100–200 mgs. Percent inhibition or tumor growth inhibition (TGI) was calculated using the following formula: 100-[mean tumor value of treated / mean tumor value of control] x 100.
Plasma and tumor samples were collected 4 hours post single dose. […] Dosing volume for all groups was 10 mL/kg or 0.1 mL/10 g body weight.

`CC[C@]1(O)C[C@@H]2CN(CCc3c([nH]c4ccccc34)[C@@](C(=O)OC)(c3cc4c(cc3OC)N(C)[C@H]3[C@@](O)(C(=O)OC)[C@H](OC(C)=O)[C@]5(CC)C=CCN6CC[C@]43[C@@H]65)C2)C1` [Vinblastine] was tested, and the T/C (10 mg/kg IV Q5Dx2, Day 10) was 100.48, the “Tumor Weights (mg), MEAN” value (10 mg/kg IV Q5Dx2, Day 10) was 230.70 mg and the T/C (10 mg/kg IV Q5Dx2, Day 13) was 42.10. The “Tumor Weights (mg), MEAN” value (10 mg/kg IV Q5Dx2, Day 13) was 256.70 mg, the T/C (10 mg/kg IV Q5Dx2, Day 15) was 37.24 and the “Tumor Weights (mg), MEAN” value (10 mg/kg IV Q5Dx2, Day 15) was 325.90 mg. The T/C (10 mg/kg IV Q5Dx2, Day 17) was 11.60, the “Tumor Weights (mg), MEAN” value (10 mg/kg IV Q5Dx2, Day 17) was 196.60 mg and the T/C (10 mg/kg IV Q5Dx2, Day 20) was 2.84. For the same molecule, the “Tumor Weights (mg), MEAN” value (10 mg/kg IV Q5Dx2, Day 20) was 69.22 mg.
